Measurements reported in paper PMC5684418, “Structural remodeling and oligomerization of human cathelicidin on membranes suggest fibril-like structures as active species” (Scientific Reports, 2017).
Ends that are not written are not given here.

Legend:
[1] = Cryo-EM of small unilamellar lipid vesicles incubated with gold-labelled peptide; conditions: DOPC:DOPG (3:7) SUVs, peptide:lipid 1:250, 15 minutes
Method: For the labeling of LL-37 with 1.4 nm nanogold particles (Nanoprobes, Inc), 200 µM of the S37C peptide were reduced using 5 mM of Dithiothreitol (DTT) in the presence of 5 mM EDTA and 100 mM sodium phosphate, pH 7, at room temperature for 1 hour while shaking. The excess of DTT was removed using a 3 kD-cutoff ultrafiltration cell (Amicon, Millipore). Nanogold at 6 nmol concentration was incubated with the peptide at room temperature for 2 hours while shaking. To remove the excess of nanogold, the mixture was loaded onto a Superdex 75 10/300 GL column (GE Healthcare) with 150 mM NaCl and 20 mM sodium phosphate, pH 7. The fractions containing the labeled peptide were concentrated using a 3 kD-cutoff (Amicon, Millipore) ultrafiltration device. The DOPC:DOPG (3:7) SUVs (small unilamellar vesicles) were prepared using a mini-extruder (Avanti Polar Lipids, Inc). Their size and homogeneity was checked using dynamic light scattering (DLS). DOPC:DOPG vesicles were treated with nanogold labeled LL-37 (ratio of peptide to lipid 1:250).

[2] = tested on: E. coli K12 cells; assay: Cryo-electron microscopy of E. coli incubated with gold-labelled peptide; type: cell-based; conditions: E. coli K12, 18 µM (80 µg/ml) labelled peptide, 37 °C, 80 minutes
Method: E. coli K12 cells were grown at 37 °C at 200 rpm up to an OD of 0.6, and labeled LL-37 nanogold was added to 1 ml culture to reach a final concentration of 18 µM (80 µg/ml). The cultures were further incubated at 37 °C while shaking at 300 rpm (Eppendorf Thermomixer, Hamburg, Germany). After 80 minutes, 200 μl of the sample were taken and cells were pelleted at 3000*g for 10 min at 4 °C. The cell pellet was resuspended using 15 μl of culture solution in order to concentrate the sample and reach a sufficiently high cell density for the visualization in the microscope.

[3] = Analytical ultracentrifugation (AUC), equilibrium sedimentation; type: physicochemical; conditions: 0.33 mg/ml (0.07 mM) in 50 mM phosphate buffer pH 7.2, 0.04% DDM, 18.000 rpm, 20°C, 230 nm; data not shown
Source text: Supplementa ry mat eria l to the paper:
Structural remodeling and oligomerization of human cathelicidin on membranes […]
by Enea Sancho-V aello, Patrice François, Eve-Julie Bonetti, Hauke Lilie, Sebastian Finger, Fernando Gil-Ortiz, Davi d Gil -Carton, Kornelius Zeth
Peptides, lipids and detergents
All peptides used in our study were chemically synthesized and purchased from Peptide2.0(www.peptide20.com), Proteogenix (www.ProteoGenix.fr) or Genecust (www. gen ecust.com) at purities of higher than 95%. Detergents used in this study are N - o c t yl -β-D-glucoside(Apollo Scientific limited), N-D o d e c yl -β-D-maltoside (Apollo Scientific limited), N-dodecylphosphocholine(Affymetrix) and N-dodec yl-N,N-dimethylamine-N-ox ide(Aff ymetrix ). The lipids 1,2- dioleoyl-sn-gl yc e r o -3- phosphocholine (DOPC), 1,2- dioleoyl-s n gl yc e r o -3- phosphoglycerol(DOPG) and cardiolipin (CL) were purchased from Avanti P olarLipids, Inc. (Alab aster, A L, USA). […]
Centrifugationruns were performed at 18.000 rpm and 20°C; data were collected at a wavelength of 230 nmusi ng a concentration of 0.33 mg/ml (0.07 mM) in 50 mM phosphate buffer, pH 7.2. […] The radial distribution of LL-37 at sedimentation equilibrium in the respective bufferwas linearized according to the Lamm equation 1and the slope dlnc/dr2 with c representingthe peptide concentration at the radial position r was determined experimentally. […]

[4] = Peptide-lipid overlay assay (lipid strips); type: binding; conditions: 100 pmol lipid spots, LL-37 0.04 mg/ml, 1 h room temperature, anti-LL-37 HRP antibody, qualitative
Method: The lipid affinity of LL-37 was assessed using peptide-lipid overlay assays of commercially available lipid strips blotted with 100 pmol of biologically relevant lipids (Echelon Biosciences, Salt Lake City, UT), following the manufacturer’s instructions. Lipid strips were blocked with 1% fat-free milk in TBS (150 mM NaCl, 50 mM Tris-HCl, pH 7.6) for 1 h at room temperature and then incubated with LL-37 (0.04 mg/ml) dissolved in 10 mM NaHCO3, 100 mM NaCl, 5 mM sodium phosphate, pH 8, plus 1% fat-free milk in TBS for 1 h at room temperature. The lipid strips were first washed with TBS buffer three times, and then incubated overnight at 4 °C in a solution of TBS containing 1% fat free milk and the anti-LL-37 HRP-labelled antibody (Innovagen, Sweden) in a 1:2000 dilution. After being washed three times with TBS, the peptide was detected by chemoluminescence using the super-signal western femto maximum sensitivity substrate kit (Thermo Scientific, Pierce Biotechnology, Inc).

[5] = Oligomerization by size exclusion chromatography (SEC); type: physicochemical
Method: The oligomeric state of the peptide in the absence and presence of detergents was characterized on Superdex75 10/300 GL column (GE Healthcare) at peptide concentrations of 0.7 (0.16 mM) or 3.7 mg/ml (0.83 mM) respectively. The column was equilibrated using buffer A containing 100 mM NaCl, 10 mM NaHCO3, 5 mM sodium phosphate, pH 6.8, for the detergent free sample. SEC in the presence of detergents was performed at 0.7 mg/ml (0.16 mM) of LL-37 in buffer A plus the following detergent concentrations: 0.2% LDAO (8.7 mM), 0.05% DDM (0.98 mM), 0.2% DPC (5.6 mM). Peptides were incubated with buffer A and buffer-detergent solutions for 30 minutes before 200 μl samples were loaded onto the column. The flow rate of the column was adjusted to 0.5 ml/min and all runs were performed at room temperature. The peptide retention time was monitored at 215 nm due to the absence of Trp and Tyr residues.

[6] = tested on: E. coli

gold-labelled LL-37: S37C mutant of LL-37 labeled at the C-terminus with 1.4 nm nanogold particles (LLGDFFRKSKEKIGKEFKRIVQRIKDFLRNLVPRTEC; also: labeled at the C-terminus with 1.4 nm nanogold particles, attachment not given here; UniProt P49913 134-170, looked up, variant S37C)
Membrane perturbation of lipid vesicles (cryo-EM) [1]: no significant membrane perturbation | Effect on E. coli membranes (cryo-EM) [2]: clear perforation of the outer but not of the inner membrane

CC[C@H](C)[C@H](NC(=O)[C@H](CCCCN)NC(=O)[C@H](CCC(=O)O)NC(=O)[C@H](CCCCN)NC(=O)[C@H](CO)NC(=O)[C@H](CCCCN)NC(=O)[C@H](CCCNC(=N)N)NC(=O)[C@H](Cc1ccccc1)NC(=O)[C@H](Cc1ccccc1)NC(=O)[C@H](CC(=O)O)NC(=O)CNC(=O)[C@H](CC(C)C)NC(=O)[C@@H](N)CC(C)C)C(=O)NCC(=O)N[C@@H](CCCCN)C(=O)N[C@@H](CCC(=O)O)C(=O)N[C@@H](Cc1ccccc1)C(=O)N[C@@H](CCCCN)C(=O)N[C@@H](CCCNC(=N)N)C(=O)N[C@H](C(=O)N[C@H](C(=O)N[C@@H](CCC(N)=O)C(=O)N[C@@H](CCCNC(=N)N)C(=O)N[C@H](C(=O)N[C@@H](CCCCN)C(=O)N[C@@H](CC(=O)O)C(=O)N[C@@H](Cc1ccccc1)C(=O)N[C@@H](CC(C)C)C(=O)N[C@@H](CCCNC(=N)N)C(=O)N[C@@H](CC(N)=O)C(=O)N[C@@H](CC(C)C)C(=O)N[C@H](C(=O)N1CCC[C@H]1C(=O)N[C@@H](CCCNC(=N)N)C(=O)N[C@H](C(=O)N[C@@H](CCC(=O)O)C(=O)N[C@@H](CO)C(=O)O)[C@@H](C)O)C(C)C)[C@@H](C)CC)C(C)C)[C@@H](C)CC [LL-37]
Molecular weight by AUC in DDM [3]: ~ 28 kD | Interaction with PS (lipid overlay) ([4]; chemoluminescence): strong interactions | Binding to PC (lipid overlay) [4]: does not bind | Interaction with CL (lipid overlay) [4]: strong interactions | Interaction with PE (lipid overlay) [4]: strong interactions | Interaction with PG (lipid overlay) [4]: strong interactions | Interaction with PI (lipid overlay) [4]: do not interact | Interaction with PI-4 (lipid overlay) [4]: do not interact | Interaction with PI-4,5 (lipid overlay) [4]: do not interact | Interaction with phosphatidic-acid (lipid overlay) [4]: strong interactions | Interaction with sulfatide (lipid overlay) [4]: strong interaction | Recognition of PI-3, 4, 5 (lipid overlay) [4]: recognized | Oligomeric state in SEC, dominating species ([5]; 0.16 mM (0.7 mg/ml) peptide, no detergent, Superdex75 10/300 GL, 100 mM NaCl, 10 mM NaHCO3, 5 mM sodium phosphate pH 6.8, room temperature, 215 nm): monomeric | Oligomeric state in SEC in the presence of detergents ([5]; 0.16 mM peptide with 0.2% LDAO, 0.2% DPC or 0.05% DDM, 30 min pre-incubation, buffer pH 6.8, room temperature): tetramers or hexamers | Oligomeric state in SEC (retention time range) ([5]; 0.83 mM (3.7 mg/ml) peptide, no detergent, Superdex75 10/300 GL, buffer pH 6.8, room temperature, 215 nm): tetramer or hexamer | Molecular weight in SEC in the presence of detergents ([5]; in the presence of DDM, DPC and LDAO): around 30 kD

LLGDFFRKSKEKIGKEFKRIVQRIKDF [LL-28]
MIC against E. coli in the presence of detergent [6]: 6 µg/mL
